This passage reports Activity results from ChEMBL document CHEMBL3045317, “Synthesis of novel analogues on the -carbon of houttuyfonate and SAR analysis of antibacterial activity with MOPAC” (Med Chem Res, 2009).

Active and inactive are the calls of the source. The calls are words filed in the database; no cut-off is given here.

What all share (assay type): functional, organism-based
One experiment relates to Bacillus subtilis. Put plainly: Antimicrobial activity against Bacillus subtilis CCRC 10255 after 24 hr by broth microdilution method.
For a further experiment, the system named is Staphylococcus aureus. Put plainly: Antimicrobial activity against Staphylococcus aureus ATCC 25923 after 24 hr by broth microdilution method.
The subject of another experiment is Salmonella typhi. Put plainly: Antimicrobial activity against Salmonella enterica subsp. enterica serovar Typhi ATCC 19430 after 24 hr by broth microdilution method. In general terms: In broth dilution the organism is exposed to a series of concentrations in liquid medium.
Another experiment relates to Pseudomonas aeruginosa. Put plainly: Antimicrobial activity against Pseudomonas aeruginosa ATCC 27853 after 24 hr by broth microdilution method.
For a further experiment, the system named is Escherichia coli. Put plainly: Antimicrobial activity against Escherichia coli ATCC 25922 after 24 hr by broth microdilution method.
The test system of another experiment is Proteus mirabilis. Put plainly: Antimicrobial activity against Proteus mirabilis ATCC 49027 after 24 hr by broth microdilution method.
The subject of a further experiment is Shigella dysenteriae. Put plainly: Antimicrobial activity against Shigella dysenteriae NI-51570 after 24 hr by broth microdilution method.

Regarding `CCCCCCCC(=O)CC=O`, the outcome with Bacillus subtilis and in the experiment on Staphylococcus aureus was Active.

For `CCCCCCCCCCCC(=O)CC=O`, the result with Bacillus subtilis and in the experiment on Staphylococcus aureus was Active.

Turning to `CCCCCCCC(=O)C(C=O)CC` (stereo not drawn), the result in the experiment with Salmonella typhi, in the experiment with Pseudomonas aeruginosa, in the experiment with Escherichia coli, in the experiment with Proteus mirabilis and in the experiment on Shigella dysenteriae was inactive. In addition, the outcome in the experiment with Bacillus subtilis and with Staphylococcus aureus was Active.

`CCCCCCCCCC(=O)CC=O`: the result with Bacillus subtilis and in the experiment with Staphylococcus aureus was Active.
